Measured values taken from the supplement of paper PMC10883282.
± gives the standard deviation of the averaged measurements.

Assays:
Assay in all cases: relative viability vs DMSO control (72 h) (fraction); higher = more viable cells
VA-ES-BJ = test system: VA-ES-BJ
Method in brief: (§1)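 Sarcoma cell lines were seeded in 384-well plates at densities set to reach 80–90% confluence. After 24 h, 2.5 µl of serially diluted compound was added (source plates 10 mM to 0.0002 mM), and plates were held 72 h at 37 °C, 5% CO2, with 0.1% DMSO vehicle and a 5 µM positive control. Relative viability came from ATPLite readings as percent growth, averaged over up to triplicate wells. Data were rescaled so full viability equals 1 and none equals 0.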

SK-LMS-1 = test system: SK-LMS-1
Method in brief: as §1

SW1353 = test system: SW1353
Method in brief: as §1

SW684 = test system: SW684
Method in brief: as §1

A204 = test system: A204
Method in brief: as §1

MES-SA = test system: MES-SA
Method in brief: as §1

HT1080 = test system: HT1080
Method in brief: as §1

G401 = test system: G401
Method in brief: as §1

SYO-1 = test system: SYO-1
Method in brief: as §1

SW872 = test system: SW872
Method in brief: as §1

KHOS-NP = test system: KHOS-NP
Method in brief: as §1

HS729 = test system: HS729
Method in brief: as §1

Compound: Cc1cn(-c2cc(NC(=O)c3ccc(C)c(Nc4nccc(-c5cnccn5)n4)c3)cc(C(F)(F)F)c2)cn1 [Radotinib]
- relative viability (VA-ES-BJ; 0.00017 µM): 1.05 ± 0.039
- relative viability (VA-ES-BJ; 0.00051 µM): 1.08 ± 0.032
- relative viability (VA-ES-BJ; 0.00152 µM): 1.05 ± 0.029
- relative viability (VA-ES-BJ; 0.00457 µM): 1.06 ± 0.048
- relative viability (VA-ES-BJ; 0.01372 µM): 1.08 ± 0.053
- relative viability (VA-ES-BJ; 0.04115 µM): 1.05 ± 0.0088
- relative viability (VA-ES-BJ; 0.1235 µM): 1.11 ± 0.053
- relative viability (VA-ES-BJ; 0.3704 µM): 1.17 ± 0.058
- relative viability (VA-ES-BJ; 1.111 µM): 1.18 ± 0.047
- relative viability (VA-ES-BJ; 3.333 µM): 1.21 ± 0.045
- relative viability (VA-ES-BJ; 10 µM): 1.21 ± 0.055
- relative viability (SK-LMS-1; 0.00017 µM): 1.05 ± 0.02
- relative viability (SK-LMS-1; 0.00051 µM): 1.07 ± 0.031
- relative viability (SK-LMS-1; 0.00152 µM): 1.08 ± 0.015
- relative viability (SK-LMS-1; 0.00457 µM): 1.05 ± 0.025
- relative viability (SK-LMS-1; 0.01372 µM): 1.08 ± 0.049
- relative viability (SK-LMS-1; 0.04115 µM): 1.14 ± 0.044
- relative viability (SK-LMS-1; 0.1235 µM): 1.14 ± 0.036
- relative viability (SK-LMS-1; 0.3704 µM): 1.19 ± 0.045
- relative viability (SK-LMS-1; 1.111 µM): 1.11 ± 0.061
- relative viability (SK-LMS-1; 3.333 µM): 1.18 ± 0.034
- relative viability (SK-LMS-1; 10 µM): 1.12 ± 0.028
- relative viability (SW1353; 0.00017 µM): 1.02 ± 0.011
- relative viability (SW1353; 0.00051 µM): 1.023 ± 0.0072
- relative viability (SW1353; 0.00152 µM): 1.06 ± 0.044
- relative viability (SW1353; 0.00457 µM): 1.06 ± 0.018
- relative viability (SW1353; 0.01372 µM): 1.06 ± 0.016
- relative viability (SW1353; 0.04115 µM): 1.1 ± 0.015
- relative viability (SW1353; 0.1235 µM): 1.19 ± 0.028
- relative viability (SW1353; 0.3704 µM): 1.21 ± 0.023
- relative viability (SW1353; 1.111 µM): 1.25 ± 0.027
- relative viability (SW1353; 3.333 µM): 1.22 ± 0.081
- relative viability (SW1353; 10 µM): 1.17 ± 0.068
- relative viability (SW684; 0.00017 µM): 1.13 ± 0.021
- relative viability (SW684; 0.00051 µM): 1.17 ± 0.059
- relative viability (SW684; 0.00152 µM): 1.2 ± 0.032
- relative viability (SW684; 0.00457 µM): 1.21 ± 0.048
- relative viability (SW684; 0.01372 µM): 1.17 ± 0.066
- relative viability (SW684; 0.04115 µM): 1.19 ± 0.031
- relative viability (SW684; 0.1235 µM): 1.26 ± 0.074
- relative viability (SW684; 0.3704 µM): 1.33 ± 0.033
- relative viability (SW684; 1.111 µM): 1.38 ± 0.085
- relative viability (SW684; 3.333 µM): 1.24 ± 0.093
- relative viability (SW684; 10 µM): 1.22 ± 0.11
- relative viability (A204; 0.00017 µM): 1.09 ± 0.019
- relative viability (A204; 0.00051 µM): 1.11 ± 0.03
- relative viability (A204; 0.00152 µM): 1.09 ± 0.026
- relative viability (A204; 0.00457 µM): 1.13 ± 0.047
- relative viability (A204; 0.01372 µM): 1.14 ± 0.035
- relative viability (A204; 0.04115 µM): 1.13 ± 0.018
- relative viability (A204; 0.1235 µM): 1.11 ± 0.045
- relative viability (A204; 0.3704 µM): 1.07 ± 0.065
- relative viability (A204; 1.111 µM): 0.836 ± 0.047
- relative viability (A204; 3.333 µM): 0.629 ± 0.072
- relative viability (A204; 10 µM): 0.451 ± 0.019
- relative viability (MES-SA; 0.00017 µM): 0.935 ± 0.032
- relative viability (MES-SA; 0.00051 µM): 0.938 ± 0.016
- relative viability (MES-SA; 0.00152 µM): 0.935 ± 0.022
- relative viability (MES-SA; 0.00457 µM): 0.941 ± 0.046
- relative viability (MES-SA; 0.01372 µM): 0.958 ± 0.042
- relative viability (MES-SA; 0.04115 µM): 0.954 ± 0.021
- relative viability (MES-SA; 0.1235 µM): 0.981 ± 0.044
- relative viability (MES-SA; 0.3704 µM): 0.99 ± 0.031
- relative viability (MES-SA; 1.111 µM): 1.01 ± 0.011
- relative viability (MES-SA; 3.333 µM): 1.01 ± 0.031
- relative viability (MES-SA; 10 µM): 1.03 ± 0.026
- relative viability (HT1080; 0.00017 µM): 1.07 ± 0.043
- relative viability (HT1080; 0.00051 µM): 1.06 ± 0.049
- relative viability (HT1080; 0.00152 µM): 1.07 ± 0.065
- relative viability (HT1080; 0.00457 µM): 1.07 ± 0.028
- relative viability (HT1080; 0.01372 µM): 1.07 ± 0.029
- relative viability (HT1080; 0.04115 µM): 1.06 ± 0.026
- relative viability (HT1080; 0.1235 µM): 1.07 ± 0.013
- relative viability (HT1080; 0.3704 µM): 1.09 ± 0.042
- relative viability (HT1080; 1.111 µM): 1.03 ± 0.026
- relative viability (HT1080; 3.333 µM): 1.12 ± 0.013
- relative viability (HT1080; 10 µM): 1.06 ± 0.029
- relative viability (G401; 0.00017 µM): 1.02 ± 0.032
- relative viability (G401; 0.00051 µM): 1.06 ± 0.031
- relative viability (G401; 0.00152 µM): 1.07 ± 0.045
- relative viability (G401; 0.00457 µM): 1.1 ± 0.017
- relative viability (G401; 0.01372 µM): 1.12 ± 0.02
- relative viability (G401; 0.04115 µM): 1.11 ± 0.028
- relative viability (G401; 0.1235 µM): 1.1 ± 0.062
- relative viability (G401; 0.3704 µM): 1.08 ± 0.059
- relative viability (G401; 1.111 µM): 1.04 ± 0.061
- relative viability (G401; 3.333 µM): 0.984 ± 0.032
- relative viability (G401; 10 µM): 0.931 ± 0.018
- relative viability (SYO-1; 0.00017 µM): 0.976 ± 0.062
- relative viability (SYO-1; 0.00051 µM): 0.978 ± 0.034
- relative viability (SYO-1; 0.00152 µM): 0.987 ± 0.021
- relative viability (SYO-1; 0.00457 µM): 0.967 ± 0.025
- relative viability (SYO-1; 0.01372 µM): 0.989 ± 0.037
- relative viability (SYO-1; 0.04115 µM): 0.988 ± 0.029
- relative viability (SYO-1; 0.1235 µM): 0.993 ± 0.012
- relative viability (SYO-1; 0.3704 µM): 0.945 ± 0.03
- relative viability (SYO-1; 1.111 µM): 0.802 ± 0.04
- relative viability (SYO-1; 3.333 µM): 0.688 ± 0.023
- relative viability (SYO-1; 10 µM): 0.644 ± 0.037
- relative viability (SW872; 0.00017 µM): 1.06 ± 0.032
- relative viability (SW872; 0.00051 µM): 1.07 ± 0.028
- relative viability (SW872; 0.00152 µM): 1.07 ± 0.059
- relative viability (SW872; 0.00457 µM): 1.07 ± 0.03
- relative viability (SW872; 0.01372 µM): 1.07 ± 0.051
- relative viability (SW872; 0.04115 µM): 1.07 ± 0.028
- relative viability (SW872; 0.1235 µM): 1.08 ± 0.054
- relative viability (SW872; 0.3704 µM): 1.06 ± 0.063
- relative viability (SW872; 1.111 µM): 0.98 ± 0.019
- relative viability (SW872; 3.333 µM): 0.915 ± 0.043
- relative viability (SW872; 10 µM): 0.889 ± 0.045
- relative viability (KHOS-NP; 0.00017 µM): 1.12 ± 0.014
- relative viability (KHOS-NP; 0.00051 µM): 1.09 ± 0.021
- relative viability (KHOS-NP; 0.00152 µM): 1.11 ± 0.035
- relative viability (KHOS-NP; 0.00457 µM): 1.11 ± 0.018
- relative viability (KHOS-NP; 0.01372 µM): 1.12 ± 0.028
- relative viability (KHOS-NP; 0.04115 µM): 1.12 ± 0.018
- relative viability (KHOS-NP; 0.1235 µM): 1.11 ± 0.026
- relative viability (KHOS-NP; 0.3704 µM): 1.1 ± 0.028
- relative viability (KHOS-NP; 1.111 µM): 1.1 ± 0.011
- relative viability (KHOS-NP; 3.333 µM): 1.09 ± 0.027
- relative viability (KHOS-NP; 10 µM): 1.07 ± 0.048
- relative viability (HS729; 0.00017 µM): 0.995 ± 0.088
- relative viability (HS729; 0.00051 µM): 1.01 ± 0.1
- relative viability (HS729; 0.00152 µM): 1.02 ± 0.069
- relative viability (HS729; 0.00457 µM): 1.03 ± 0.097
- relative viability (HS729; 0.01372 µM): 0.995 ± 0.069
- relative viability (HS729; 0.04115 µM): 0.99 ± 0.032
- relative viability (HS729; 0.1235 µM): 1.02 ± 0.068
- relative viability (HS729; 0.3704 µM): 1.03 ± 0.059
- relative viability (HS729; 1.111 µM): 0.995 ± 0.077
- relative viability (HS729; 3.333 µM): 0.8744 ± 0.0076
- relative viability (HS729; 10 µM): 0.875 ± 0.051
